Source: PMC5918173, “Characterization of Transglutaminase 2 activity inhibitors in monocytes in vitro and their effect in a mouse model for multiple sclerosis” (PLoS ONE, 2018)

Assays:
fibronectin assembly = system: fibronectin assembly; parameters: method as in PMID 26133787, PMID 17099729; conditions: cited from earlier work
[1] = target: T1, TG2-fibronectin (FN42) interaction (Homo sapiens, UniProt P21980); assay: TG2 interaction with fibronectin (FN42) ELISA; type: binding; conditions: 5 and 15 μM, with or without 1 mM CaCl2, Fig 2E, 2F
T1 construct: purchased Zedira
T1 sequence (P21980 1-687): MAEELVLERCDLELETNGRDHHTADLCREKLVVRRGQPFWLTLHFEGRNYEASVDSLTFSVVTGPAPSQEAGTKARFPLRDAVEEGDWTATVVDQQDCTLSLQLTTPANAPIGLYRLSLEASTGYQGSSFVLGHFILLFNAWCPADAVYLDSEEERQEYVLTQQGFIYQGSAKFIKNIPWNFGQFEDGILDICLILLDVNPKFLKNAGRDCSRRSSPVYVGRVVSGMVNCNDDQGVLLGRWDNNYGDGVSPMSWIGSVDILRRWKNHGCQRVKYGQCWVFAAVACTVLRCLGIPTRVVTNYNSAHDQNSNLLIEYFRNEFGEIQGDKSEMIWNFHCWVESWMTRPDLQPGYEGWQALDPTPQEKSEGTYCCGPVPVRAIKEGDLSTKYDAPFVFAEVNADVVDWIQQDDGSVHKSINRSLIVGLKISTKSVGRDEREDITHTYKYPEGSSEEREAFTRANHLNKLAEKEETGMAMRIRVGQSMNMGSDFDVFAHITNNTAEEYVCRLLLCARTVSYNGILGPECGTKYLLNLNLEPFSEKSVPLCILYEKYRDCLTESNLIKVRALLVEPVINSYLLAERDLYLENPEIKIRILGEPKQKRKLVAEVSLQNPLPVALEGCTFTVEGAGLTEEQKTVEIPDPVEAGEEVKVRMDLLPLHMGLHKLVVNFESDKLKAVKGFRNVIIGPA
Description: To determine the potential effect of BJJF078 and ERW1041E on the interaction of TG2 with fibronectin, ELISA experiments were performed as described previously. Briefly, 96 well ELISA plates (Nunc, Maxisorp) were coated with 100 μg/ml mouse anti his-tag monoclonal antibody (Roche) in PBS at 4°C overnight. This was followed by simultaneous washing and blocking with 0.5% BSA in PBS (3x 10 min). Per well 50 μl of a 10 nM human recombinant TG2 (his-tagged, Zedira) solution in PBS was added. Into each well (triplicates) either DMSO (control, 1% final concentration) or TG2 inhibitors (BJJF078, ERW1041E, final concentration 5 and 15 μM in 1% DMSO) were added. As a positive control similar concentrations of TG53, a small molecule that inhibits the interaction between TG2 and fibronectin was added (kindly provided by Prof D. Matei, Northwestern University, Chicago, USA). […] After 1 h incubation at RT, 50 μl of 10 nM FN42-biotin solution (kindly provided by Prof D. Matei) was added to the wells. After an additional 1 h incubation at RT and washing steps (3x 10 min) with 0.5% BSA in PBS, 100 μl streptavidin-HRPO conjugate (from kit opr001, Covalab) was added and incubated for 1 h at RT. This was followed by another series of washes and the colour reaction started with 100 μl of 3,3′,5,5′ tetramethylbenzidine substrate (TMB, from kit opr001, Covalab). After sufficient colour development (15 min), the reaction was stopped with 1M HCl and absorbance was measured at 450 nm.

| effect on binding of TG2 to fibronectin (FN42) [1] | Compound | effect on fibronectin assembly (fibronectin assembly) |
| --- | --- | --- |
|  | O=C(N[C@@H](Cc1ccc(O)cc1)C(=O)NCC1CC(Br)=NO1)OCc1ccccc1 (some centres unmarked) [KCC009] | can interfere with fibronectin assembly |
| dose-dependent reduction | COc1ccc(Cl)cc1C(=O)Nc1ccc(Nc2nc(C)cc(N(C)C)n2)cc1 [TG53] |  |
